From PubChem BioAssay AID608 (Sanford-Burnham Center for Chemical Genomics, 2007)
Several values for one entry are separate records, joined by “and”; a condition that tells them apart may be missing. Identical values can stand only once. Activity calls are given as the source filed them. No rule for the calls is given here.

The compounds below were run against Peptidyl-prolyl cis-trans isomerase FKBP1A (Homo sapiens) (UniProt P62942) (assay: FKBP12 binders, biophysical, NMR detection (AID 608)). Conditions: NMR binding, purified FKBP12.
Sequence of Peptidyl-prolyl cis-trans isomerase FKBP1A (Homo sapiens) (P62942 whole entry, looked up): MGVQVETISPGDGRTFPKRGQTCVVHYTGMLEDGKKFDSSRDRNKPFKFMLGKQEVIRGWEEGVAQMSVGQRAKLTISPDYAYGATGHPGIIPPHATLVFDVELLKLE

Row | SMILES | Kd
1 | CCSc1nc(C)c(CC)c(C)c1C(N)=O | > 4 mM (inactive)
2 | OCC1COc2ccccc2C1 (stereo not given) | > 4 mM (inactive)
3 | O=c1c(O)c(-c2ccc(O)c(O)c2)oc2cc(O)ccc12 | > 4 mM (inactive)
4 | Cc1ccc(SCC(=O)N2CCOCC2)cc1 | 0.022 mM and 0.012 mM
5 | O=C(O)Cc1nc(-c2ccncc2)n[nH]1 | > 4 mM (inactive)
6 | O=C1CC(=O)N(c2ccccc2F)C(=S)N1 | > 4 mM (inactive)
7 | O=C(Nc1ccccc1CO)c1ccccc1F | > 4 mM (inactive)
8 | O=C(Nc1cccnc1)c1ccc(Br)s1 | > 4 mM (inactive)
9 | O=C1CCCCCN1CO | > 4 mM (inactive)
10 | COc1ccc2c3c1O[C@H]1C[C@@H](O)C=C[C@@]31CCN(C)C2 | > 4 mM (inactive)
11 | N=Nc1c(O)[nH]c2ccccc12 | > 4 mM (inactive)
12 | CC(C)=CCC/C(C)=C/CC/C(C)=C/CC/C(C)=C/CC/C(C)=C/CC/C(C)=C/CC/C(C)=C/CC/C(C)=C/CC/C(C)=C/CO | > 4 mM (inactive)
13 | COc1cc2cc[n+]3cc4c(OC)c(OC)ccc4cc3c2cc1OC | > 4 mM (inactive)
14 | CCn1c(C)c(C(C)=O)c(N2CCOCC2)nc1=S | > 4 mM (inactive)
15 | Fc1ccc(F)c(CN2CCN(c3ncccn3)CC2)c1 | > 4 mM (inactive)
16 | Cc1ccc(/C=C2/NC(=S)NC2=O)s1 | > 4 mM (inactive)
17 | O=C(O)c1ccc2nsnc2c1 | > 4 mM (inactive)
18 | Oc1cc(O)c2c(c1)O[C@H](c1cc(O)c(O)c(O)c1)[C@H](O)C2 | > 4 mM (inactive)
19 | NC(=O)c1cccnc1Oc1ccccc1 | > 4 mM (inactive)
20 | CC(=O)Nc1cccc(-c2nnc(-c3ccccc3)o2)c1 | > 4 mM (inactive)
21 | COc1c2c(cc3occ(-c4ccc5c(c4)OCO5)c(=O)c13)OC(C)(C)C=C2 | > 4 mM (inactive)
22 | Cc1nc2[nH]onc2c2nccc(=O)c12 | > 4 mM (inactive)

Row | SMILES | Kd
23 | c1ccc(-n2ncc3c(NCc4ccco4)ncnc32)cc1 | > 4 mM (inactive)
24 | Nc1cccc2c(=O)[nH][nH]c(=O)c12 | > 4 mM (inactive)
25 | CCCCn1c(S(=O)(=O)O)nc2ccccc21 | > 4 mM (inactive)
26 | O=C(/C=C/C=C/c1ccc2c(c1)OCO2)N1CCCCC1 | > 4 mM (inactive)
27 | O=C(O)C1CCCCN1Cc1ccccc1 (stereo not given) | > 4 mM (inactive)
28 | CCC(=O)n1nc(-c2ccco2)nc1N | > 4 mM (inactive)
29 | C=C1CCC2[C@](C)(CO)[C@H](O)CC[C@@]2(C)[C@@H]1C/C=C1/C(=O)OC[C@H]1O (stereo not given in full) | > 4 mM (inactive)
30 | COCC(=O)Nc1cc2c3c(c1)CCN3C(=O)CC2 | > 4 mM (inactive)
31 | NC1=NCc2ccccc21 | > 4 mM (inactive)
32 | CCn1c(-c2c[nH]c3ccccc23)n[nH]c1=S | > 4 mM (inactive)
33 | c1ccc2c(c1)[nH]c1cnccc12 | > 4 mM (inactive)
34 | NC(=O)CSc1nc2ccccc2o1 | > 4 mM (inactive)
35 | Cc1ccc2c(C)c(C(=O)Nc3nnc(C)s3)oc2c1 | > 4 mM (inactive)
36 | Cc1cc(C)n2c(SCc3cccs3)nnc2n1 | > 4 mM (inactive)
37 | CC[C@H](CCC(C)[C@H]1CCC2C3CCC4C[C@@H](O)CC[C@]4(C)C3CC[C@@]21C)C(C)C (stereo not given in full) | > 4 mM (inactive)
38 | O=C(NCC1CCNCC1)c1ccccn1 | > 4 mM (inactive)
39 | CC(=O)Nc1cnn(-c2ccccc2)c(=O)c1Cl | > 4 mM (inactive)
40 | N[C@@H](C(=O)O)[C@@H](O)[C@H](O)[C@H](O)CO | > 4 mM (inactive)
41 | O=c1c2ccccc2[nH]c2ncccc12 | > 4 mM (inactive)
42 | O=C(CO)N/N=C/c1ccccc1F | > 4 mM (inactive)
43 | O=C(O)c1cc(O)c(O)c(O)c1 | > 4 mM (inactive)
44 | NC(=O)Nc1cccc(C(F)(F)F)c1 | > 4 mM (inactive)

Row | SMILES | Kd
45 | Oc1ccc(-n2ccnc2)cc1 | > 4 mM (inactive)
46 | O=C(O)/C=C1\NC(=O)c2ccccc21 | > 4 mM (inactive)
47 | Cc1nn2c(=O)/c(=C/c3cccc(F)c3)sc2nc1=O | > 4 mM (inactive)
48 | CCOC(=O)c1c(C)cc(O)c(C)c1O | > 4 mM (inactive)
49 | O=C1CCC(c2cccs2)=NN1 | > 4 mM (inactive)
50 | O=C(NN=C1CCCC1)c1ccncc1 | > 4 mM (inactive)
51 | O=S(=O)(O)c1cc[n+]([O-])cc1 | > 4 mM (inactive)
52 | O=C(NC(=S)NC1CCS(=O)(=O)C1)c1ccccc1 (stereo not given) | > 4 mM (inactive)
53 | CC(=O)n1nc(-c2cccnc2)nc1N | > 4 mM (inactive)
54 | COn1c(=O)c(-c2ccco2)[n+]([O-])c2ccccc21 | > 4 mM (inactive)
55 | CC(=O)OCC(=O)[C@@]1(O)CCC2C3CC[C@@H]4C[C@H](O)CC[C@]4(C)C3C(=O)C[C@@]21C (stereo not given in full) | > 4 mM (inactive)
56 | C[C@H](CCC(=O)O)[C@H]1CCC2C3C(CC[C@@]21C)[C@@]1(C)CC[C@@H](O)C[C@H]1C[C@H]3O (stereo not given in full) | > 4 mM (inactive)
57 | Cc1ccc(OCC(=O)n2cnnc2N)c(C)c1 | > 4 mM (inactive)
58 | Cc1c(N=Cc2ccc[nH]2)c(=O)n(-c2ccccc2)n1C | > 4 mM (inactive)
59 | CN1CCn2c1nc(N1CCCCC1)nc2=O | > 4 mM (inactive)
60 | Cc1occc1C(=O)NCc1ccncc1 | > 4 mM (inactive)
61 | CC(=O)OC1CC[C@@]2(C)C(CCC3C2CC[C@]2(C)C(C4=CC(=O)OC4)C(OC(C)=O)CC32O)C1 (stereo not given in full) | > 4 mM (inactive)
62 | Cc1nc(-c2ccccc2)sc1CN | > 4 mM (inactive)
63 | CCCNC(=O)CSc1nnc(C)s1 | > 4 mM (inactive)
64 | O=c1ccc2ccc(O)cc2o1 | > 4 mM (inactive)
65 | CN(Cc1nc2ccccc2n1C)S(C)(=O)=O | > 4 mM (inactive)
66 | O=C1NC(=O)C(c2ccccc2)C(=O)N1 | > 4 mM (inactive)

Row | SMILES | Kd
67 | Cc1nc(-c2ccc(C(=O)N3CCOCC3)cc2)cs1 | > 4 mM (inactive)
68 | O=c1[nH]c(=O)c2[nH]cnc2[nH]1 | > 4 mM (inactive)
69 | CC(=O)O[C@H]1CC[C@@]2(C)C(=CC(=O)C3C4CCC(C(C)CCCC(C)C)[C@@]4(C)CCC32)C1 (stereo not given in full) | > 4 mM (inactive)
70 | CC(C)(C(N)=O)/[N+]([O-])=C\c1ccccc1 | > 4 mM (inactive)
71 | Cc1cc(N)n(C2CCOC(C)(C)C2)n1 (stereo not given) | > 4 mM (inactive)
72 | O=C(Nc1ccc(-c2nnco2)cc1)c1ccccc1 | > 4 mM (inactive)
73 | Cc1ccc(/C=N/n2c(C)nnc2C)cc1 | > 4 mM (inactive)
74 | COc1cc(C2NC(=S)NC(C)=C2C(C)=O)ccc1O (stereo not given) | > 4 mM (inactive)
75 | c1ccc2[nH]c(NCCN3CCOCC3)nc2c1 | > 4 mM (inactive)
76 | Nc1ccc2c(c1)N1CCN=C1S2 | > 4 mM (inactive)
77 | CC1(C)CC(=O)c2sc(N)nc2C1 | > 4 mM (inactive)
78 | Nc1ccc(-c2csnn2)cc1 | > 4 mM (inactive)
79 | O=C(O)c1ccc(Nc2nncc(=O)[nH]2)cc1 | > 4 mM (inactive)
80 | CC(C)=CCc1c2c(c3occ(-c4ccc(O)c(O)c4)c(=O)c3c1O)C=CC(C)(C)O2 | > 4 mM (inactive)
81 | CSc1nnnn1-c1cccc(O)c1 | > 4 mM (inactive)
82 | O=C(O)c1cccc2c1OCCO2 | > 4 mM (inactive)
83 | CC(=O)n1c(N)nc2ccccc21 | > 4 mM (inactive)
84 | CC(=O)c1c(O)cc(C)n(Cc2ccccc2)c1=O | > 4 mM (inactive)
85 | O=c1[nH]c2ccc(S(=O)(=O)NC3CC3)cc2[nH]1 | > 4 mM (inactive)
